Data from patent publication US20260042732A1, “Sulfur-containing Compounds and Compositions Thereof for Delivery of Nucleic Acids” (Poseida Therapeutics, Inc., priority 2022, published 2026).
Values joined by “and” are separate entries in the source; they are usually repeats but may differ in a detail not shown here. Equal entries are not always repeated.

System: cells in the liver
Test: In vivo screening of LNPs comprising fLuciferase mRNA, bioluminescent imaging (BLI)
Set-up: species or system BALB/C mice
Conditions: 0.5 mg/kg fLuciferase mRNA intravenously, BLI at 4 hr
Description: To formulate the LNPs, various percentages of one of COMPOUNDS 3, 6, or 12, the phospholipid (DOPE or DOPC), the structural lipid cholesterol (Chol) and 1,2-dimyristoyl-sn-glycerol methoxypolyethylene glycol (DMG-PEG2000; Avanti Polar Lipids, Alabaster, Alabama, USA) were combined to prepare LNP compositions.
Individual 25 mg/ml stock solutions were prepared by solubilizing the lipids in 200-proof HPLC-grade ethanol and stock solutions were stored at −80° C. until formulated. At the time of formulation, the lipid stock solutions were briefly allowed to equilibrate to room temp and then placed on a hot plate maintained at a temperature range of 50-55° C. Subsequently, the hot lipid stock solutions were combined to yield desired final mole percentages.
A 1 mg/ml solution of the 5′-CleanCap-fLuciferase mRNA (TriLink Biotech) to be incorporated into the LNPs was added to 150 mM sodium acetate buffer (pH 5.2) to form a stock solution and kept on ice. The lipid phase was mixed with the aqueous mRNA phase inside a microfluidic chip using a NanoAssemblr® instrument (Precision Nanosystems, Vancouver, BC, Canada) according to the manufacturer's instructions to form LNP compositions comprising encapsulated mRNAs.
The resultant mRNA LNP compositions were then transferred to a Repligen Float-A-Lyzer dialysis device—having a molecular weight cut off (MWCO) of 8-10 kDa (Spectrum Chemical Mfg. Corp, CA, USA) and processed by dialysis against phosphate buffered saline (PBS) (dialysate:dialysis buffer volume at least 1:200 v/v), pH 7.4 overnight at 4° C. (or alternatively room temperature for at least 4 hours), to remove the 25% ethanol and achieve a complete buffer exchange. […]
The location and extent of luciferase expression in treated and control mice were determined at 4 hr by bioluminescent imaging (BLI) of anesthetized mice using an IVIS Lumina in vivo imaging system (Perkin Elmer) according to the manufacturer's instructions. […]

## CCCCCCCCCCC(CN(CCCN(C)CCCN(CC(CCCCCCCCCC)SSCCO)CC(CCCCCCCCCC)SSCCO)CC(CCCCCCCCCC)SSCCO)SSCCO (stereo not drawn) [Compound 3]
LNP with 33.5% moles compound, 32% DOPE, 33.5% Chol, 1% PEG-DMG, lipid:RNA 40 w/w
  Mean Liver Luciferase Flux: 2.72E+08 p/s
LNP with 43.3% moles compound, 12% DOPC, 43.3% Chol, 1.5% PEG-DMG, lipid:RNA 100 w/w
  Mean Liver Luciferase Flux: 6.49E+10 p/s
LNP with 54% moles compound, 10% DOPC, 35% Chol, 1% PEG-DMG, lipid:RNA 100 w/w, 0.5 mg/kg
  Mean Liver Luciferase Flux: 1.94E+11 p/s and 1.16E+11 p/s
